Where two headings read alike, the source gives them in different places.
Columns and labels:
[1] = Cytotoxicity assay in MT-4 cells; format: cell-based; conditions: human, uninfected MT-4 cells, Cell Titer Glo
Experimental: (§1) Compounds were tested in a high-throughput 384-well assay format for their ability to inhibit the replication of HIV-1 (IIIB) in MT-4 cells. Compounds were serially diluted (1:3) in DMSO on 384-well polypropylene plates and further diluted 200-fold into complete RPMI media (10% FBS, 1% P/S) using the Biotek Micro Flow and Labcyte ECHO acoustic dispenser. Each plate contained up to 8 test compounds, with negative (No Drug Control) and 5 μM AZT positive controls. MT-4 cells were pre-infected with 10 μL of either RPMI (mock-infected) or a fresh 1:250 dilution of HIV-1 IIIB concentrated virus stock. Infected and uninfected MT-4 cells were further diluted in complete RPMI media and added to each plate using a Micro Flow dispenser. After 5 days incubation in a humidified and temperature controlled incubator (37° C.), Cell Titer Glo (Promega) was added to the assay plates and chemiluminescence read using an Envision plate-reader. EC50 values were defined as the compound concentration that causes a 50% decrease in luminescence signal, and were calculated using a sigmoidal dose-response model to generate curve fits. Cytotoxicity Assay in MT-4 Cells Assays were performed as above except uninfected MT-4 cells were added to each well containing test compound. In addition, 10 μM puromycin was added to the last column of each assay plate to assess a base level of cytotoxicity.

[2] = High throughput microsomal stability assay (human liver microsomes); format: in vitro ADME; conditions: for HLM stability: human liver microsomes, 1 uM compound, NADPH + UDPGA cofactors, 37 C
Experimental: Example 49: High Throughput Microsomal Stability Assay
Metabolic stability of compounds was assessed using Human, or Rat Liver Microsomal assays (Corning). In this assay, 10 nL compounds at concentration of 1 mM in 100% DMSO were dispensed into 384-well polypropylene plates using the Echo 550 acoustic liquid dispenser (Labcyte®). Each plate contained 384 wells with a single test compound in each well.
A solution of human (Corning® Gentest™ Human Mixed Pooled Microsomes), or rat (Corning® Gentest™ Rat [Sprague-Dawley] Pooled Liver Microsomes) liver microsomes at 2 mg/ml in 100 mM K2HPO4/KH2PO4 pH 7.4 with Alamethicin from Trichoderma viride (Sigma-Aldrich) 0.0225 mg/ml were incubated on ice for 15 minutes. 5 uL of this solution was added to individual wells following 15 minute incubation at room temperature; and supplemented with 5 uL NADPH Regenerating Solution of cofactors (Corning® Gentest™ UGT Reaction Mix) containing 100 mM K2HPO4/KH2PO4 pH 7.4, 2.6 mM NADP+, 6.6 mM glucose-6-phosphate, 6.6 mM MgCl2, 0.8 U/mL glucose-6-phosphate dehydrogenase, 0.1 mM Sodium Citrate, 6.8 mM uridine diphosphate-glucuronic acid. Final concentration of analyte compounds at the beginning of the reaction was 1 uM. The reactions were incubated at 37° C. and time points of 0, 5, 15, 30, 40, 50, 60, and 70 minutes were collected for further analysis. Background data were collected using reactions without analyte compounds.
Upon collection of the reaction time points, samples were quenched with 30 uL of a solution of 72% acetonitrile, 8% methanol, 0.1% formic acid, 19.9% water, and internal standard (IS). Reaction plates were span in a centrifuge at speed of 4,000 rcf for 30 minutes and 4° C., following a dilution of the 10 uL quenched reaction into 40 uL de-ionized water, yielding assay plates.
Assay plates were analyzed using solid-state extraction coupled with quadrupole time-of-flight mass spectrometer, using Agilent QToF 6530 RapidFire 360 system, with C4 type A solid state cartridges. Analysis was performed in either positive or negative ionization modes. Mobile phases contained 0.1% formic acid in water for loading analytes onto solid state extraction cartridges, and 0.1% formic acid in acetonitrile for elution into mass spectrometer in positive ionization mode, or 0.1% acetic acid in water for loading and 0.1% acetic acid in acetonitrile for extraction in negative ionization mode. Peak-area ratios of integrated counts for individual compounds to IS were plotted as semi-logarithmic chart of log vs time. Initial, linear portion of decay was fitted to a linear regression equation to derive half time of a compound decay.
Pharmacological parameters for an analyte compound metabolism were calculated using the following equations: […]
Where. Calculation of In Vitro Intrinsic Clearance
Concentration refers to the protein concentration (mg/mL) in the reaction.
Calculation of In Vivo Intrinsic Clearance
This scales the in vitro intrinsic clearance up to the value that would be predicted for the entire mass of liver tissue (but with no restriction by blood flow). The value depends upon the size of the liver (species-dependent) and the yield of microsomal protein as appropriate (assumed to be species-independent).
Calculation of Predicted Clearance
Hepatic clearance will depend upon the inter-relationship of intrinsic clearance and hepatic blood flow and can be predicted from in vitro data using a variety of approaches.
Calculation of Hepatic Extraction
This is simply the predicted clearance expressed as a proportion of hepatic blood flow. E=CL/QH*100%
Intrinsic clearance of the instant compounds, as well as for reference compounds A-F, were calculated following the procedure above.

[3] = system: pLai RLuc reporter virus in MT-4 cells; experiment: HIV MT-4 serum shift antiviral reporter assay; format: cell-based; conditions: Human immunodeficiency virus 1, MT4, 72 h, read-out: RLUC CCM
Experimental: Example 48: HIV MT-4 Serum Shift Antiviral Reporter Assay
To quantify the amount of protein binding to human serum, compounds were serially diluted (1:3) in DMSO and acoustically transferred onto 384-well assay plates via a Labcyte ECHO robot. Each plate contained up to 8 test compounds, including negative and positive controls, (DMSO, 5 μM AZT respectively). Assay plates were prepared in duplicate, and tested in either CCM (cell culture media) or HS/CCM (human serum/cell culture media). MT-4 cells were first pre-infected with pLai RLuc reporter virus for 2 h at 37° C., then further diluted in either CCM (RPMI media, 10% FBS, 1% P/S) or HS/CCM (RPMI media, 10% FBS, 50% HS, 1% P/S), and subsequently added to each plate using a Biotek Micro Flow dispenser. After a 72-h incubation in a humidified and temperature controlled incubator (37° C.), Renilla Glo (Promega) was added to all assay plates and chemiluminescence read using an Envision plate-reader. EC50 values were defined as the compound concentration that causes a 50% decrease in luminescence signal, and were calculated using a sigmoidal dose-response model to generate curve fits. To determine the amount of protein binding, EC50 fold shifts (or EC50 shifts) were calculated by dividing EC50 (HS/CCM)/EC50 (CCM). […]

[4] = system: HIV-1 (IIIB) in MT-4 cells; experiment: HIV MT-4 antiviral assay; format: cell-based; conditions: Human immunodeficiency virus 1, MT4, 120 h, 5 days, Cell Titer Glo
Experimental: Example 47: HIV MT-4 Antiviral and Cytotoxicity Assay
Antiviral Assay in MT-4 Cells
as §1, with “fits.” for “fits. Cytotoxicity Assay in MT-4 Cells Assays were performed as above except uninfected MT-4 cells were added to each well containing test compound. In addition, 10 μM puromycin was added to the last column of each assay plate to assess a base level of cytotoxicity.”

Compound: CO[C@H]1CC[C@H](C)N2C[C@H]1n1cc(C(=O)NCc3ccc(F)cc3F)c(=O)c(O)c1C2=O [Example 3, (3S,6S,7R)—N-(2,4-difluorobenzyl)-12-hydroxy-6-methoxy-3-methyl-1,11-dioxo-1,4,5,6,7,11-hexahydro-3H-2,7-methanopyrido[1,2-a][1,4]diazonine-10-carboxamide]
- CC50 at 5 days [1]: 16500 nM
- HLM stability [2]: 2.5 mL/min/kg
- MS Cl improvement ([2]; relative to compound B): 3.2 times relative to compound B
- EC50 [3]: 0.42 nM
- EC50 [4]: 1.5 nM

Compound: CO[C@@H]1C=C[C@H](C)N2C[C@H]1n1cc(C(=O)NCc3c(F)cc(F)cc3F)c(=O)c(O)c1C2=O [Example 4, (3S,6R,7R)-12-hydroxy-6-methoxy-3-methyl-1,11-dioxo-N-(2,4,6-trifluorobenzyl)-1,6,7,11-tetrahydro-3H-2,7-methanopyrido[1,2-a][1,4]diazonine-10-carboxamide]
- CC50 at 5 days [1]: 11200 nM
- HLM stability [2]: 2.33 mL/min/kg
- MS Cl improvement ([2]; relative to compound C): 3.6 times relative to compound C
- EC50 [3]: 0.34 nM
- EC50 [4]: 1.1 nM

Compound: C[C@H]1CC[C@@H](O)[C@H]2CN1C(=O)c1c(O)c(=O)c(C(=O)NCc3c(F)cc(F)cc3F)cn12 [Example 5, (3S,6R,7R)-6,12-dihydroxy-3-methyl-1,11-dioxo-N-(2,4,6-trifluorobenzyl)-1,4,5,6,7,11-hexahydro-3H-2,7-methanopyrido[1,2-a][1,4]diazonine-10-carboxamide]
- CC50 at 5 days [1]: 50000 nM
- HLM stability [2]: 3.33 mL/min/kg
- EC50 [3]: 0.71 nM
- EC50 [4]: 1.8 nM

Compound: CO[C@@H]1CC[C@H](C)N2C[C@H]1n1cc(C(=O)NCc3c(F)cc(F)cc3F)c(=O)c(O)c1C2=O [Example 6, (3S,6R,7R)-12-hydroxy-6-methoxy-3-methyl-1,11-dioxo-N-(2,4,6-trifluorobenzyl)-1,4,5,6,7,11-hexahydro-3H-2,7-methanopyrido[1,2-a][1,4]diazonine-10-carboxamide]
- CC50 at 5 days [1]: 13000 nM
- HLM stability [2]: 4.83 mL/min/kg
- MS Cl improvement ([2]; relative to compound D): 2.3 times relative to compound D
- EC50 [3]: 0.5 nM
- EC50 [4]: 1.4 nM

Compound: CO[C@@H]1C=C[C@H](C)N2C[C@H]1n1cc(C(=O)NCc3ccc(F)cc3F)c(=O)c(O)c1C2=O [Example 7, (3S,6R,7R)—N-(2,4-difluorobenzyl)-12-hydroxy-6-methoxy-3-methyl-1,11-dioxo-1,6,7,11-tetrahydro-3H-2,7-methanopyrido[1,2-a][1,4]diazonine-10-carboxamide]
- CC50 at 5 days [1]: 9910 nM
- MS Cl improvement [2]: 2.0 times relative to compound E
- HLM stability [2]: 3.33 mL/min/kg
- EC50 [3]: 0.29 nM
- EC50 [4]: 1.2 nM

Compound: CO[C@H]1C=C[C@H](C)N2C[C@H]1n1cc(C(=O)NCc3ccc(F)c(Cl)c3F)c(=O)c(O)c1C2=O [Example 9, (3S,6S,7R)—N-(3-chloro-2,4-difluorobenzyl)-12-hydroxy-6-methoxy-3-methyl-1,11-dioxo-1,6,7,11-tetrahydro-3H-2,7-methanopyrido[1,2-a][1,4]diazonine-10-carboxamide]
- CC50 at 5 days [1]: 4270 nM
- HLM stability [2]: 8 mL/min/kg
- EC50 [3]: 0.42 nM
- EC50 [4]: 1 nM

Compound: CO[C@@H]1C=C[C@H](C)N2C[C@H]1n1cc(C(=O)NCc3ccc(F)c(Cl)c3F)c(=O)c(O)c1C2=O [Example 10, (3S,6R,7R)—N-(3-chloro-2,4-difluorobenzyl)-12-hydroxy-6-methoxy-3-methyl-1,11-dioxo-1,6,7,11-tetrahydro-3H-2,7-methanopyrido[1,2-a][1,4]diazonine-10-carboxamide]
- CC50 at 5 days [1]: 4020 nM
- HLM stability [2]: 6.67 mL/min/kg
- EC50 [3]: 0.28 nM
- EC50 [4]: 1.2 nM

Compound: C[C@H]1CC[C@](C)(O)[C@H]2CN1C(=O)c1c(O)c(=O)c(C(=O)NCc3c(F)cc(F)cc3F)cn12 [Example 11, (1R,10S,13S)-6,13-dihydroxy-10,13-dimethyl-5,8-dioxo-N-[(2,4,6-trifluorophenyl)methyl]-2,9-diazatricyclo[7.4.1.02,7]tetradeca-3,6-diene-4-carboxamide]
- CC50 at 5 days [1]: 38700 nM
- HLM stability [2]: 4.17 mL/min/kg
- MS Cl improvement ([2]; relative to compound D): 2.7 times relative to compound D
- EC50 [3]: 0.84 nM
- EC50 [4]: 1.5 nM

Compound: C[C@H]1C=C[C@@H](Cl)[C@H]2CN1C(=O)c1c(O)c(=O)c(C(=O)NCc3ccc(F)cc3F)cn12 [Example 13, (3S,6R,7R)-6-chloro-N-(2,4-difluorobenzyl)-12-hydroxy-3-methyl-1,11-dioxo-1,6,7,11-tetrahydro-3H-2,7-methanopyrido[1,2-a][1,4]diazonine-10-carboxamide]
- CC50 at 5 days [1]: 15600 nM
- MS Cl improvement [2]: 1.5 times relative to compound E
- HLM stability [2]: 4.33 mL/min/kg
- EC50 [3]: 0.55 nM
- EC50 [4]: 1.5 nM
